{"source": "patent US9962354B2", "about": "“Method and composition for bacterial or fungal suppression on skin” (priority 2009, dated 2018)", "key": {"[1]": {"system": "staphylococcus aureus (ATCC 6366)", "assay": "27 hour kinetic growth assay using a redox active dye", "format": "cell-based", "details": "25 uL test material in TSB, 27 hour kinetic assay", "procedure": "(§1) Conjugated linoleic acid (80%) and conjugated linoleic acid diglyceride, containing both trans and cis isomers, were used to show persisting reduction of bacterial growth over several hours. Each measure was accomplished in separate wells. Each well received a unique combination of the following, including controls. Conjugated linoleic acid 80% and conjugated linoleic acid diglyceride, 25 uL were each separately added to Trypticase Soy Broth (TSB). To each solution was added 75 uL TSB plus 50 uL staphylococcus aureus (ATCC 6366) or pseudomonas aeruginosa (ATCC 15442). This was then entered into a 27 hour kinetic assay using a redox active dye to monitor growth. Appropriate controls were simultaneously run."}, "[2]": {"system": "pseudomonas aeruginosa (ATCC 15442)", "assay": "27 hour kinetic growth assay using a redox active dye", "format": "cell-based", "details": "25 uL test material in TSB, 27 hour kinetic assay", "procedure": "as §1"}, "[3]": {"assay": "direct application of oil to skin with acne", "format": "in vivo", "details": "applied twice daily directly to skin; after 24 hours", "description": "CLA free fatty acid oil was applied twice daily directly to skin with acne."}}}
{"substance": "conjugated linoleic acid [conjugated linoleic free fatty acid]", "values": [{"measurement": "reduction in bacterial growth beginning at", "setting": "[1]", "result": 30, "unit": "min"}, {"measurement": "reduction in bacterial growth sustained for", "setting": "[1]", "result": 20, "unit": "h"}, {"measurement": "reduction in bacterial growth beginning at", "setting": "[2]", "result": 200, "unit": "min"}, {"measurement": "reduction in bacterial growth sustained for", "setting": "[2]", "result": 27, "unit": "h"}, {"measurement": "size and redness of the acne", "setting": "[3]", "result": "substantial reduction in the size and redness of the acne"}]}
{"substance": "conjugated linoleic acid diglyceride [conjugated linoleic diglyceride]", "values": [{"measurement": "reduction in bacterial growth beginning at", "setting": "[1]", "result": 30, "unit": "min"}, {"measurement": "reduction in bacterial growth sustained for", "setting": "[1]", "result": 20, "unit": "h"}, {"measurement": "reduction in bacterial growth beginning at", "setting": "[2]", "result": 200, "unit": "min"}, {"measurement": "reduction in bacterial growth sustained for", "setting": "[2]", "result": 27, "unit": "h"}]}
